Reference: patent publication US20020038064A1, “Colorless petroleum marker dyes” (priority 2000, published 2002)

Assay: Water extraction test of 10 ppm marker solution in kerosene
Type: physicochemical
Settings: 10 mL of 10 ppm solution in kerosene stirred with 10 mL water for ½ hour; layers separated, 2 mL developer added to each layer
Experimental: A marker solution was prepared by dissolving a 100 mg portion of the residue in xylenes (100 mL), and diluting 1 mL of the resulting solution to 100 mL with kerosene to make a 10 ppm solution.
A developer was made by dissolving 1 g of a 40% solution of benzyltrimethylammonium hydroxide in methanol in 99 g of 2-ethyl-1-hexanol. To a 10 mL portion of the 10 ppm marker solution prepared above was added 2.5 mL of the developer. […] If necessary, quantitative determination of the marker concentration can be accomplished by measuring the absorbance of the solution at a wavelength of 581 nm.
A 10 mL portion of the 10 ppm solution prepared above was stirred with 10 mL of water for ½ hour and the layers were separated. […] Addition of 2 mL of developer solution to the water layer gave no color.

Structure (SMILES): CCCC(=O)Oc1ccc(C2(c3ccc(OC(=O)CCC)c(C)c3)OC(=O)c3ccccc32)cc1C [Example 1, Di-n-Butyl Ester of o-Cresolphthalein]
- extraction of the marker into the water layer: not extracted into the water layer
